{"source": "patent US6906059B2", "about": "“Pharmaceutical composition with protective action against oxidative/toxic substances, especially cardiotoxic substances” (Solvay Pharmaceuticals, priority 1999, dated 2005)", "key": {"[1]": {"test_system": "rabbits with adriamycin-induced cardiomyopathy", "test": "Reduction of adriamycin-induced cardiac remodelling processes in the rabbit heart (heart/body weight ratio, hydroxyproline content)", "format": "in vivo", "conditions": "for Ratio of heart weights to body weight: X ± SEM, n = 8", "method": "• A) The tests were carried out on rabbits of both sexes having an initial body weight of 2.1±0.2 kg. The animals were divided into 3 groups:\n1. untreated animals (=control animals, n=20);\n2. animals treated with adriamycin (+placebo instead of test substance, n=8);\n3. animals treated with adriamycin and test substance (n=8). • The test substance used was (3S,2R′)-3-{1-[2′-(ethoxycarbonyl)-4′-phenyl-butyl]-cyclopentane-1-carbonylamino}-2,3,4,5-tetrahydro-2-oxo-1H-1-benzazepin-1-acetic acid, which is representative of the substances of Formula I usable according to the invention.\nGroups 2 and 3 were administered 1 mg/kg adriamycin i.v. twice a week for 4 weeks. Group 3 of rabbits having adriamycin-induced cardiomyopathy was administered a daily oral dose of the test substance (30 mg/kg body weight) for 4 weeks, starting on the first day of adriamycin treatment, with their food. Once the 4 weeks had ended, the hearts were isolated and weighed. Then they were fixed with formalin for later biochemical investigations (hydroxyproline content of the heart tissue, measured with the HPLC amino acid analysis after Blankenship, D. T. et al., Aunal. Biochem. 178, 227-232, 1989 and Schuster, R., J. Chromatogr. 431, 271 -284, 1989). Both the increase in heart weight in relation to body weight and the hydroxyproline content in the heart tissue compared with normal values are indicators of remodelling processes taking place in the heart."}, "[2]": {"test_system": "rats with adriamycin-induced cardiomyopathy", "test": "Inhibition of the pro-oxidative action of adriamycin in rats (plasma α-tocopherol, lipid peroxides, ferroxidase activity)", "format": "in vivo, male Wistar rats", "conditions": "for Lipid peroxides (measured as malonic dialdehyde thiobarbituric acid adducts) in plasma / α-Tocopherol (Vitamin E) in plasma / Ferroxidase activity in plasma: X ± SEM", "method": "The left-ventricular myocardial hydroxyproline concentration, which is a measurement of cardiac fibrous tissue growth, was less in the animals treated with test substance (group 3) than in the control animals treated with adriamycin (group 2). […] If the test substance was also administered in addition to adriamycin (group 3), the adriamycin-induced increase in the hydroxyproline content could be reduced by about 13% compared with animals treated with placebo (group 2). […] The animals were divided into 4 groups:\n1. untreated animals (=control animals, n=19);\n2. animals treated with adriamycin (+placebo instead of test substance, n=14);\n3. animals treated with test substance (n=11);\n4. animals treated with adriamycin and test substance (n=14).\nThe test substance used was (3S,2R′)-3-{1-[2′-(ethoxycarbonyl)-4′-phenyl-butyl]-cyclopentane-1-carbonylamino}-2,3,4,5-tetrahydro-2-oxo-1H-1-benzazepin-1-acetic acid, being representative of the substances of Formula I usable according to the invention.\nThe animals of groups 2 and 4 were administered 15 mg/kg adriamycin intraperitoneally over a period of two weeks. The animals of group 4 were administered 30 mg/kg of the test substance daily for two weeks with their food, starting with the first day of adriamycin treatment. The animals of group 3 were likewise administered 30 mg/kg of the test substance daily for two weeks with their food (but without adriamycin).\nOnce the two-weeks' treatment had ended, the animals were anaesthetised with pentobarbital (50 mg/kg i.p.) and venous blood samples were taken, from which plasma was obtained. The concentration of lipid-peroxides and the ferroxidase activity in the plasma was measured using the methods of Wong, S. H. Y. et al., Clin. Chem. 33, 214-220, 1987 or Johnson, D. A. et al., Clin. Chem. 13, 142-150, 1967. Furthermore, the α-tocopherol concentration in the plasma was measured using the method of Catignani, G. L. and Bieri, J. G., Clin. Chem. 29, 708-712, 1983."}, "[3]": {"conditions": "group 2 (adriamycin) v. group 1 (untreated)"}, "[4]": {"conditions": "Group 2: adriamycin 15 mg/kg i.p. over two weeks + placebo, n = 14"}, "[5]": {"conditions": "group 2 (adriamycin) v. group 1 (control)"}, "[6]": {"conditions": "adriamycin + test substance 30 mg/kg daily oral v. adriamycin + placebo, 4 weeks"}, "[7]": {"conditions": "Group 3: test substance 30 mg/kg daily with food for two weeks, no adriamycin, n = 11"}, "[8]": {"conditions": "Group 4: adriamycin 15 mg/kg i.p. + test substance 30 mg/kg daily, two weeks, n = 14"}, "[9]": {"conditions": "adriamycin + test substance v. adriamycin + placebo"}, "[10]": {"conditions": "group 4 v. group 2 (adriamycin + placebo)"}, "[11]": {"conditions": "test substance alone v. untreated"}}}
{"smiles": "COc1cccc2c1C(=O)c1c(O)c3c(c(O)c1C2=O)C[C@@](O)(C(=O)CO)C[C@@H]3O[C@H]1C[C@H](N)[C@H](O)[C@H](C)O1", "note": "[adriamycin, reference compound]", "values": [{"measurement": "Ratio of heart weights to body weight", "setting": "[1]; Group 2: adriamycin 1 mg/kg i.v. twice a week for 4 weeks + placebo", "value": "3.39 ± 0.13", "unit": "g/kg"}, {"measurement": "Increase of heart/body weight ratio compared with untreated control group", "setting": "[1]; [3]", "value": "about 69%"}, {"measurement": "Increase of myocardial hydroxyproline content compared with untreated control group", "setting": "[1]; [3]", "value": "about 60%"}, {"measurement": "Lipid peroxides (measured as malonic dialdehyde thiobarbituric acid adducts) in plasma", "setting": "[2]; [4]", "value": "4.476 ± 0.404", "unit": "µmol/L"}, {"measurement": "α-Tocopherol (Vitamin E) in plasma", "setting": "[2]; [4]", "value": "338.2 ± 28.0", "unit": "µg/dL"}, {"measurement": "Increase of concentration of lipid peroxides in the rat plasma", "setting": "[2]; [5]", "value": "about 131%"}, {"measurement": "Increase of total activity of the ferroxidase in the rat plasma", "setting": "[2]; [5]", "value": "about 22%"}]}
{"smiles": "CCOC(=O)[C@H](CCc1ccccc1)CC1(C(=O)N[C@H]2CCc3ccccc3N(CC(=O)O)C2=O)CCCC1", "note": "[test substance, (3S,2R′)-3-{1-[2′-(ethoxycarbonyl)-4′-phenyl-butyl]-cyclopentane-1-carbonylamino}-2,3,4,5-tetrahydro-2-oxo-1H-1-benzazepin-1-acetic acid]", "values": [{"measurement": "Ratio of heart weights to body weight", "setting": "[1]; Group 3: adriamycin 1 mg/kg i.v. twice a week + test substance 30 mg/kg daily oral, 4 weeks", "value": "2.79 ± 0.08", "unit": "g/kg"}, {"measurement": "% Effect of the test substance (group 3 v. 2) on hydroxyproline content of the heart", "setting": "[1]; [6]", "value": "−13.3", "unit": "%"}, {"measurement": "% Effect of the test substance (group 3 v. 2) on ratio of heart weights to body weight", "setting": "[1]; [6]", "value": "−17.7", "unit": "%"}, {"measurement": "Reduction of the adriamycin-induced increase in the heart/body weight ratio", "setting": "[1]; group 3 v. group 2 (placebo)", "value": "about 18%"}, {"measurement": "Reduction of the adriamycin-induced increase in the hydroxyproline content", "setting": "[1]; group 3 v. group 2 (placebo)", "value": "about 13%"}, {"measurement": "Ferroxidase activity in plasma", "setting": "[2]; [7]", "value": "0.2545 ± 0.0104", "unit": "IU/l"}, {"measurement": "Lipid peroxides (measured as malonic dialdehyde thiobarbituric acid adducts) in plasma", "setting": "[2]; [7]", "value": "2.319 ± 0.086", "unit": "µmol/L"}, {"measurement": "α-Tocopherol (Vitamin E) in plasma", "setting": "[2]; [7]", "value": "657.8 ± 21.0", "unit": "µg/dL"}, {"measurement": "Ferroxidase activity in plasma", "setting": "[2]; [8]", "value": "0.2534 ± 0.0128^+ IU/l"}, {"measurement": "Lipid peroxides (measured as malonic dialdehyde thiobarbituric acid adducts) in plasma", "setting": "[2]; [8]", "value": "3.030 ± 0.235^+++ μmol/l"}, {"measurement": "α-Tocopherol (Vitamin E) in plasma", "setting": "[2]; [8]", "value": "407.9 ± 33.0", "unit": "µg/dL"}, {"measurement": "% Effect of the test substance on plasma ferroxidase activity, Group 4 v. 2", "setting": "[2]; [9]", "value": "−23.0", "unit": "%"}, {"measurement": "% Effect of the test substance on plasma lipid peroxides, Group 4 v. 2", "setting": "[2]; [9]", "value": "−32.3", "unit": "%"}, {"measurement": "% Effect of the test substance on plasma α-tocopherol, Group 4 v. 2", "setting": "[2]; [9]", "value": "+20.6%"}, {"measurement": "Increase of α-tocopherol content in the plasma", "setting": "[2]; group 3 (test substance) v. group 1 (control)", "value": "about 95%"}, {"measurement": "Increase of α-tocopherol content in the plasma", "setting": "[2]; group 4 (adriamycin + test substance) v. group 2 (adriamycin + placebo)", "value": "about 21%"}, {"measurement": "Decrease of ferroxidase activity", "setting": "[2]; [10]", "value": 23, "unit": "%"}, {"measurement": "Reduction of the adriamycin-induced increase in the concentration of lipid peroxides in the plasma", "setting": "[2]; [10]", "value": "about 32%"}, {"measurement": "% Effect of the test substance on plasma ferroxidase activity, Group 3 v. 1", "setting": "[2]; [11]", "value": "−5.7", "unit": "%"}, {"measurement": "% Effect of the test substance on plasma lipid peroxides, Group 3 v. 1", "setting": "[2]; [11]", "value": "+19.6%"}, {"measurement": "% Effect of the test substance on plasma α-tocopherol, Group 3 v. 1", "setting": "[2]; [11]", "value": "+95.2%"}]}
